According to patent US11384385B2, “Method for predicting therapeutic effects of irinotecan, and kit for same” (Yamaguchi University, priority 2017, dated 2022):
Like-named read-outs stand apart in the source and are kept apart here.

Experiments:
cancer = settings: general response rate; cited from earlier work
[1] = system: colorectal cancer (stage IV); assay: Therapeutic effect of irinotecan on cancer evaluated by RECIST (CR and PR = therapeutic effect), by rs1980576 genotype; assay type: in vivo, human; settings: for therapeutic effect observed (CR+PR): rs1980576 wild-type homozygote (A/A)
Protocol: Analysis objects were 140 cases among 155 Japanese colorectal cancer (stage IV) cases who were administered with irinotecan excluding cases who were administered with a reduced amount of irinotecan, UGT1A1*6 (homo), UGT1A1*28 (homo), and their compound heterogeneous cases and determined for the therapeutic effect and 66 subpopulation cases (FOLFIRI cases with a unified regimen) among the 140 cases. FOLFIRI is one of standard treatments for colorectal cancer and using irinotecan simultaneous with treatment with a combination of fluorouracil and 1-leucovorin. The 140 cases were Japanese colorectal cancer patients treated with a regimen including irinotecan. The regimen in this Example includes combination therapy, in addition to irinotecan, with FOLFIRI using fluorouracil and 1-leucovorin, […] using capecitabine, IRIS using S-1, or an anti-EGFR antibody agent ([…], Cetuximab, or Panitumumab). Comprehensive analysis (WES analysis) of the prepared genome DNA was performed by the same method as described in WO2016/132736 (PCT/JP2016/000793). That is, three types of cases: cases (n=5) as a control group in which UGT1A genetic polymorphisms (seven positions of UGT1A1*6, *27, and *28, UGT1A7 (387T>G and 622T>C), UGT1A9*1b, and UGT1A1*60) were all homozygotes being low in side effect risk and no side effect from irinotecan were observed; cases (n=5) as a case group in which although the UGT1A genetic polymorphisms were the same as those in the control group, side effects (Grade 3, entire course) were observed; and cases (n=5) in which any of the UGT1A genetic polymorphisms was a heterozygote and a side effect was observed from the first administration of irinotecan (Grade 4), were established, and the case and control groups were analyzed. […] The genetic polymorphisms and the side effect frequency and the response rates were statistically analyzed using a Cochran-Armitage trend test. […] Accordingly, 11 single nucleotide polymorphisms in total: the above-mentioned single nucleotide polymorphisms a) to f) and single nucleotide polymorphisms g) UGT1A1*6, h) UGT1A1*60, i) UGT1A7 (387T>G), j) UGT1A7 (622T>C), and k) UGT1A9*1b known to be involved in side effects from irinotecan, were analyzed for a relationship with the therapeutic effects of irinotecan on cancer. […] CR and PR were determined to have a therapeutic effect; and SD and PD were determined to have no therapeutic effect. […] FIGS. 1 and 2 show the analysis results of 140 cases determined for therapeutic effects, and FIGS. 3 and 4 show the analysis results of 66 subpopulation cases among the 140 cases. […] In addition, in FIGS. 1 to 4, “Odds ratio” is calculated as an odds ratio of the therapeutic effects (efficacy) of irinotecan on cancer in a wild-type homozygote or a mutant-type homozygote by Fisher's exact test.

[2] = FIG. 5, Table 2 of WO2016/132736, cited from earlier work
[3] = rs1980576 mutant-type homozygote (G/G)

Compound: CCc1c2c(nc3ccc(OC(=O)N4CCC(N5CCCCC5)CC4)cc13)-c1cc3c(c(=O)n1C2)COC(=O)[C@]3(O)CC [irinotecan, (S)-4,11-diethyl-3,4,12,14-tetrahydro-4-hydroxy-3,14-dioxo-1H-pyrano[3′,4′:6,7]indolizino[1,2-b]quinolin-9-yl ester, CPT-11,1,4′-bipiperidine-1′-carboxylic acid]
- response rate of irinotecan generally (cancer): about 32%
- possibility of a therapeutic effect of irinotecan on cancer ([1]; rs1980576 heterozygote (A/G)): high
- therapeutic effect [1, 3]: low
- therapeutic effect observed (CR+PR) ([1]; 66 FOLFIRI cases only (FIG. 3)): 43%
- therapeutic effect observed (CR+PR) ([1]; 140 Japanese colorectal cancer cases, regimen including irinotecan (FIG. 1)): 38%
- risk of side effects ([2]; rs1980576 heterozygote (A/G)): low
- risk of side effects [2, 3]: high
- risk of side effects ([2]; rs1980576 wild-type homozygote (A/A)): low
